The values below come from patent US20230287083A1, “CD1 PEPTIDE-EPITOPE FOR USE IN THE TREATMENT OF A DISEASE CAUSED BY AN INT[…]” (priority 2020, published 2023).

Residues, ends and D or L forms follow the SMILES beside them.

One data set relates to HSV. Kind of data set: Cellular immune response towards live-attenuated HSV vaccine after peptide pre-immunization. Format: in vivo, BALB/c mice. Particulars: one month after last injection. On the procedure: BALB/c mice are immunized in footpath with 100 μg of peptide of SEQ ID NO:5 emulsified in complete Freund's adjuvant, and this injection is repeated once after an interval of 2 weeks, the second injection being made in incomplete Freund's adjuvant. A control group of BALB/c mice is treated with adjuvant alone.
All mice then receive a commercial preparation of live-attenuated HSV on 2 occasions separated by one month.
One month after the last injection, the immune response towards the vaccine is compared between the 2 groups.

Data set [1] deals with NS5. In words: Same NS5 experiment repeated in BALB/c mice. It is filed as in vivo.
For data set [2], the system named is NS5. In words: Detection of NS5-specific NKT cells (PLZF staining) with JAWS2 presenting cells. Format: in vivo, C57BL/6 mice. Particulars: CD3+ cells incubated with JAWS2 presenting cells. On the procedure:
(§1) Peptide of SEQ ID NO:1 is emulsified in complete Freund's adjuvant and injected subcutaneously at a dose of 100 μg in a series of C57BL/6 mice, followed after 2 weeks by the same injection in incomplete Freund's adjuvant. A control group is injected according to the same schedule with adjuvant alone.
(§2) Two weeks after the last injection both groups of mice are treated by a subcutaneous injection of NS5 protein in alum, repeated every 2 weeks four times.
(§3) The spleen of all mice is obtained one month after the last injection and the population of CD3+ lymphocytes isolated by FACS sorting.
In parallel experiments CD3+ cells are incubated with JAWS2 as presenting cells.

Data set [3] concerns NS5. In words: NS5-specific activation of splenic CD3+ lymphocytes (3H-thymidine incorporation) after peptide pre-injection and NS5 vaccination. It is filed as in vivo, C57BL/6 mice. The protocol:
as §1, §2, §3
Cells are then maintained in culture in the presence of antigen-presenting cells loaded with NS5 and the proportion of activated cells numbered after 6 days by incorporation of 3H-thymidine.
Background: Incorporation of labelled thymidine or its analogues reports DNA synthesis.

Data set [4] deals with SARS-CoV-2 S protein. Kind of data set: Specific anti-S protein antibody titers and isotypes in serum. It is filed as in vivo, C57BL/6 mice. Conditions: for specific anti-S protein antibody titers: vs control. The protocol: (§4) Peptide of SEQ ID NO:3 is used to immunize C57BL/6 mice at a dose of 100 μg emulsified in complete Freund's adjuvant, followed by a second injection of 100 μg in incomplete Freund's adjuvant 3 weeks later. A control group receives only the adjuvant.
(§5) Both groups of mice are then immunized with 100 μg of S protein in alum, administered at 2-week intervals, starting 3 weeks after injection of peptide of SEQ ID NO:3 (or adjuvant), for a total of 4 injections at 2 weeks interval.
(§6) The immune response towards S protein is then evaluated on splenocytes retrieved either 2 or 6 months after the last injection and titers of specific antibodies are evaluated on serum.

Data set [5] relates to SARS-CoV-2 S protein. Kind of data set: Splenocyte immune response towards S protein after peptide pretreatment and S protein immunization. Format: in vivo, C57BL/6 mice. The protocol: as §4, §5, §6
The subject of a further data set is Coxsackie B4-V. Kind of data set: Coxsackie B4-V infection, pancreas cellular infiltration / pancreatitis. Format: in vivo, BALB/c mice. The protocol:
BALB/c mice are immunized by footpath injection of 100 μg of peptide of SEQ ID NO:2 emulsified in Freund's adjuvant, on 2 occasions at a 2-weeks interval. A control group is injected with the adjuvant alone.
All mice are then immunized with the full polyprotein adsorbed on alum, using 100 μg per injection, for a total of 4 injections administered at an interval of 2 weeks.
Three weeks after the last injection, all mice are infected with 50 PFU of the B4-V strains in peritoneum.
Within 3 days after infection, the pancreas of 50% of the mice is isolated and examined for cellular infiltration. All mice in the control group show massive infiltration by mononuclear cells in the acini.

Data set [6] deals with hemagglutinin from influenza A virus. Also noted: species or system C57BL/6 mice. Conditions: mouse, in vivo.
Data set [7] shares this test system. Also noted: species or system C57BL/6 mice. Particulars: mouse, in vivo. The source holds these as a separate data set.
Data set [8] has the same test system. Also noted: species or system C57BL/6 mice. Particulars: mouse, in vivo. This is another data set of the same source.
Where [9] appears, read: C57BL/6, vs adjuvant-only control.

Turning to `CC(C)C[C@H](NC(=O)[C@H](Cc1c[nH]cn1)NC(=O)[C@H](CC(C)C)NC(=O)[C@H](Cc1ccccc1)NC(=O)[C@H](CC(C)C)NC(=O)[C@@H](N)C(C)C)C(=O)N[C@@H](Cc1ccc(O)cc1)C(=O)N[C@@H](CC(C)C)C(=O)N[C@@H](Cc1ccccc1)C(=O)N[C@@H](CC(C)C)C(=O)N[C@H](C(=O)O)[C@@H](C)O` [peptide of SEQ ID NO:5, VL-FLHLYLF-LT] (H-VLFLHLYLFLT-OH), the “cells sharing a cytotoxicity potential (CD8+ T cells, NK cells, NKT cells)” value with HSV was “significant expansion”.
For the compound AG-HGQVDNF-SL [peptide of SEQ ID NO:1], the “result of the same experiment in BALB/c mice” value in the data set with NS5 [1] is on record as “essentially the same results”. The “NS5-specific NKT cells detected by PLZF staining” value with NS5 [2] is “found only in the group of mice which has been pre-sensitized with peptide of SEQ ID NO:1”. Also, the “total number of NS5-specific cells” value in the data set on NS5 [3] (C57BL/6, 100 μg peptide s.c. in CFA then IFA before NS5 in alum, vs adjuvant-only control) was “significantly higher”. In the data set on NS5 [3] (setting [9]), the “number of NS5-specific CD4 cells” value was “higher number is observed” and the “number of NS5-specific CD8 cells” value is “highly significant”. Besides, the “variation in numbers of CD4, CD8 and NKT cells between individuals and between strains” value in the data set on NS5 [3] (C57BL/6 and BALB/c, large variations in control groups) was “very little variation”.
In the case of “ATR FASVYAW NRK (FASVYAWNRK) [peptide of SEQ ID NO:3]”, the “specific anti-S protein antibody titers” value with SARS-CoV-2 S protein [4] (2 months after end of immunization) and in the data set with SARS-CoV-2 S protein [4] (6 months after end of immunization) was “significantly higher titers” throughout. Moreover, the “isotypic distribution of anti-S protein antibodies” value in the data set on SARS-CoV-2 S protein [4] (2 months, vs control group) was “dramatic shift from IgG1 in the control group towards IgG2a”; in the data set on SARS-CoV-2 S protein [4] (after 6 months), “shift was maintained”. The “number of CD8+ T cells relative to CD4+ T cells” value was “outweigh the number of CD4+ T cells” in the data set with SARS-CoV-2 S protein [5] (2 months after last injection, reverse in control group) and “same trend towards preferential CD8+ T cells” in the data set with SARS-CoV-2 S protein [5] (6 months after last injection). For the same compound, the “numbers of CD3+ lymphocytes towards protein S” value in the data set on SARS-CoV-2 S protein [5] (vs control mice) was “significantly higher numbers”.
As to EK-FRDIRGF-LA [peptide of SEQ ID NO:2], the pancreatitis signs entry with Coxsackie B4-V (day 10 after infection, control: persisting infiltration, disappearance of acini structure) is “complete resolution of pancreatitis signs”. In the data set with Coxsackie B4-V (within 3 days after infection with 50 PFU B4-V, control: massive infiltration), the “pancreas cellular infiltration by mononuclear cells in the acini” value was “moderate infiltration”.
In the case of GL-FGAIAGF-IE [peptide of SEQ ID NO:4], the “ratio of IFN-gamma over IL-4 production” value in data set [6] was “high ratio of IFN-gamma over IL-4”. In data set [7], the “isotype distribution of anti-hemagglutinin antibodies in serum” value is on record as “high concentrations of IgG2a”. The “type of immune response towards hemagglutinin (CD8+, NK and NKT cells)” value in data set [8] was “dominated by a Th1-like and cytotoxic response”.
